Experimental data taken from publication PMC5148701 (Journal of medicinal chemistry, 2016).
Read-outs that look alike come from different tables or passages of the source.

Tests used:
hD2L receptors = hD2L receptors (Homo sapiens, UniProt P14416); assay: D2R Gi/o-mediated cAMP inhibition assay; format: cell-based; conditions: for Emax: HEK-293T; for decrease of potency in Gi/o pathway compared to compound 1 / activity in Gi/o signaling (in words): cAMP inhibition assay
D2L receptors = D2L receptors (Homo sapiens, UniProt P14416); assay: D2R β-arrestin-2 recruitment Tango assay; format: cell-based; conditions: for Emax: HTLA, read-out: β-arrestin Emax (%); for EC50: β-arrestin EC50 (nM), HTLA cells
[1] = read-out: cAMP Emax (%), HEK293T cells, GloSensor-22F, normalized to maximum cAMP inhibition by quinpirole (100%)

D2L receptors, sequence (P14416 whole entry): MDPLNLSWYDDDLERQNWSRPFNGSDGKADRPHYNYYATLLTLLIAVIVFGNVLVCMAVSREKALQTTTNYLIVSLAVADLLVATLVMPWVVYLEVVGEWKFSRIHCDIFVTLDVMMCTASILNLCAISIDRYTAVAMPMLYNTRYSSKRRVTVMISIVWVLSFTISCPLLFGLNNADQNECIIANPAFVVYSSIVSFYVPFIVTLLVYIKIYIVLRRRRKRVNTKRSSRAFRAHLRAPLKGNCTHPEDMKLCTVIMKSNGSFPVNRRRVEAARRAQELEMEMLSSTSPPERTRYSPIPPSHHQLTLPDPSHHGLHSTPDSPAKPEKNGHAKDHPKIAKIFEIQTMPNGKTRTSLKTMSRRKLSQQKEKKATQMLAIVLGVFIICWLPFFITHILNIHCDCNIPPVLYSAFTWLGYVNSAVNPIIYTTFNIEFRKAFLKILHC
hD2L receptors, sequence (P14416 whole entry): as above

| Compound | Emax (hD2L receptors; read-out: cAMP Emax (%)) [%] | Emax (D2L receptors) [%] | EC50 (D2L receptors; Tango assay) [nM] | Emax (hD2L receptors; [1]) [%] | also measured |
| --- | --- | --- | --- | --- | --- |
| Cc1nc2cc(OCCCN3CCN(c4cccc(Cl)c4Cl)CC3)ccc2s1 [Compound 2, 5-(3-(4-(2,3-Dichlorophenyl)piperazin-1-yl)propoxy)-2-methylbenzo[d]thiazole] | – | – | – | – | D2R agonist profile in β-arrestin and Gi/o pathways (hD2L receptors; compared with β-arrestin recruitment Tango assay): balanced D2R agonist |
| Cc1nc2ccc(OCCCCN3CCN(c4cccc(Cl)c4Cl)CC3)cc2s1 [Compound 3, 6-(4-(4-(2,3-Dichlorophenyl)piperazin-1-yl)butoxy)-2-methylbenzo[d]thiazole] | 42 | 22 | 76 | – | decrease of potency in Gi/o pathway compared to compound 1 (hD2L receptors): 2 fold; decrease of potency in β-arrestin recruitment compared to compound 1 (D2L receptors; Tango assay): 5 fold |
| Clc1nc2cc(OCCCCN3CCN(c4cccc(Cl)c4Cl)CC3)ccc2s1 [Compound 6, 2-Chloro-5-(4-(4-(2,3-dichlorophenyl)piperazin-1-yl)butoxy)benzo[d]thiazole] | – | 40 | 48 | 50 | – |
| O=c1[nH]c2cc(OCCCCN3CCN(c4cccc(Cl)c4Cl)CC3)ccc2s1 [Compound 7, 5-(4-(4-(2,3-Dichlorophenyl)piperazin-1-yl)butoxy)benzo[d]thiazol-2(3H)-one] | 67 | 59 | 2.6 | – | – |
| FC(F)(F)c1nc2cc(OCCCCN3CCN(c4cccc(Cl)c4Cl)CC3)ccc2s1 [Compound 11, 5-(4-(4-(2,3-Dichlorophenyl)piperazin-1-yl)butoxy)-2-(trifluoromethyl)benzo[d]thiazole] | – | 40 | – | – | – |
| CCc1nc2cc(OCCCCN3CCN(c4cccc(Cl)c4Cl)CC3)ccc2s1 [Compound 18, 5-(4-(4-(2,3-Dichlorophenyl)piperazin-1-yl)butoxy)-2-ethylbenzo[d]thiazole] | – | < 20 | – | 43 | – |
| CC(C)c1nc2cc(OCCCCN3CCN(c4cccc(Cl)c4Cl)CC3)ccc2s1 [Compound 19, 5-(4-(4-(2,3-Dichlorophenyl)piperazin-1-yl)butoxy)-2-isopropylbenzo[d]thiazole] | – | < 20 | – | 33 | – |
| CN(C)c1nc2cc(OCCCCN3CCN(c4cccc(Cl)c4Cl)CC3)ccc2s1 [Compound 25, 5-(4-(4-(2,3-Dichlorophenyl)piperazin-1-yl)butoxy)-N,N-dimethylbenzo[d]thiazol-2-amine] | – | – | – | – | activity in Gi/o signaling (in words) (hD2L receptors): did not show any activity; activity in β-arrestin recruitment (in words) (D2L receptors; Tango assay): did not show any activity |
| Cc1nc2cc(OCCCCN3CCC(c4cccc(Cl)c4Cl)CC3)ccc2s1 [Compound 30, 5-(4-(4-(2,3-Dichlorophenyl)piperidin-1-yl)butoxy)-2-methylbenzo[d]thiazole] | 66 | 31 | 49 | – | – |
| Cc1nc2cc(OCCCCN3CCCN(c4cccc(Cl)c4Cl)CC3)ccc2s1 [Compound 31, 5-(4-(4-(2,3-Dichlorophenyl)-1,4-diazepan-1-yl)butoxy)-2-methylbenzo[d]thiazole] | 22 | < 20 | – | – | activity in β-arrestin recruitment (in words) (D2L receptors; Tango assay): inactive |
| COc1ccccc1N1CCN(CCCCOc2ccc3sc(C)nc3c2)CC1 [Compound 32, 5-(4-(4-(2-Methoxyphenyl)piperazin-1-yl)butoxy)-2-methylbenzo[d]thiazole] | 61 | 25 | 8.5 | – | decrease of potency in Gi/o pathway compared to compound 1 (hD2L receptors): around 5 fold |
| Cc1nc2cc(OCCCCN3CCN(c4cccc(Cl)c4Cl)[C@@H](C)C3)ccc2s1 [Compound 34, (S)-5-(4-(4-(2,3-Dichlorophenyl)-3-methylpiperazin-1-yl)butoxy)-2-methylbenzo[d]thiazole] | – | – | – | – | activity in Gi/o signaling (in words) (hD2L receptors): no appreciable activity; activity in β-arrestin recruitment (in words) (D2L receptors; Tango assay): no appreciable activity |
| Cc1ccc2cccc(N3CCN(CCCCOc4ccc5sc(C)nc5c4)CC3)c2n1 [Compound 36, 2-Methyl-5-(4-(4-(2-methylquinolin-8-yl)piperazin-1-yl)butoxy)benzo[d]thiazole] | 25 | < 20 | – | – | – |
| Cc1nc2cc(OCCCCN3CCN(c4cccc5c4OCCN5)CC3)ccc2s1 [Compound 39, 8-(4-(4-((2-Methylbenzo[d]thiazol-5-yl)oxy)butyl)piperazin-1-yl)-3,4-dihydro-2H-benzo[b][1,4]oxazine] | 29 | < 20 | – | – | activity in β-arrestin recruitment (in words) (D2L receptors; Tango assay): did not recruit β-arrestin at all |
| Cc1nc2cc(OCCCCN3CCN(c4cccc5c4OCCO5)CC3)ccc2s1 [Compound 40, 5-(4-(4-(2,3-Dihydrobenzo[b][1,4]dioxin-5-yl)piperazin-1-yl)butoxy)-2-methylbenzo[d]thiazole] | 50 | – | 3.6 | – | – |
| Cc1nc2cc(OCCCCN3CCN(c4cccc(-c5ccccc5)c4C)CC3)ccc2s1 [Compound 44, 2-Methyl-5-(4-(4-(2-methyl-[1,1'-biphenyl]-3-yl)piperazin-1-yl)butoxy)benzo[d]thiazole] | – | – | – | – | activity in Gi/o signaling (in words) (hD2L receptors): completely inactive; activity in β-arrestin recruitment (in words) (D2L receptors; Tango assay): completely inactive |
| Cc1nc2cc(OCCCCN3CCN(c4cccc5[nH]c(=O)oc45)CC3)ccc2s1 [Compound 45, 7-(4-(4-((2-Methylbenzo[d]thiazol-5-yl)oxy)butyl)piperazin-1-yl)benzo[d]oxazol-2(3H)-one] | 90 | 88 | 0.36 | – | – |
| CC(C)c1nc2cc(OCCCCN3CCC(c4cccc(Cl)c4Cl)CC3)ccc2s1 [Compound 47, 5-(4-(4-(2,3-Dichlorophenyl)piperidin-1-yl)butoxy)-2-isopropylbenzo[d]thiazole] | – | < 20 | – | 33 | – |
| CCc1nc2cc(OCCCCN3CCN(c4cccc5ccc(C)nc45)CC3)ccc2s1 [Compound 48, 2-Ethyl-5-(4-(4-(2-methylquinolin-8-yl)piperazin-1-yl)butoxy)benzo[d]thiazole] | – | < 20 | – | 33 | – |
| CCc1nc2cc(OCCCCN3CCN(c4cccc5c4OCCN5)CC3)ccc2s1 [Compound 50, 8-(4-(4-((2-Ethylbenzo[d]thiazol-5-yl)oxy)butyl)piperazin-1-yl)-3,4-dihydro-2H-benzo[b][1,4]oxazine] | – | 33 | 6.4 | – | – |
| CC(C)c1nc2cc(OCCCCN3CCN(c4cccc5c4OCCN5)CC3)ccc2s1 [Compound 51, 8-(4-(4-((2-Isopropylbenzo[d]thiazol-5-yl)oxy)butyl)piperazin-1-yl)-3,4-dihydro-2H-benzo[b][1,4]oxazine] | – | – | – | 48 | – |
| CCc1nc2cc(OCCCCN3CCN(c4cccc5c4OCCO5)CC3)ccc2s1 [Compound 52, 5-(4-(4-(2,3-Dihydrobenzo[b][1,4]dioxin-5-yl)piperazin-1-yl)butoxy)-2-ethylbenzo[d]thiazole] | – | – | – | – | activity in Gi/o signaling (in words) (hD2L receptors): inactive; activity in β-arrestin recruitment (in words) (D2L receptors; Tango assay): inactive |
| CNc1nc2cc(OCCCCN3CCN(c4cccc5c4OCCN5)CC3)ccc2s1 [Compound 56, 5-(4-(4-(3,4-Dihydro-2H-benzo[b][1,4]oxazin-8-yl)piperazin-1-yl)butoxy)-N-methylbenzo[d]thiazol-2-amine] | – | 29 | 6.5 | 49 | – |
| CNc1nc2cc(OCCCCN3CCN(c4cccc5c4OCCO5)CC3)ccc2s1 [Compound 57, 5-(4-(4-(2,3-Dihydrobenzo[b][1,4]dioxin-5-yl)piperazin-1-yl)butoxy)-N-methylbenzo[d]thiazol-2-amine] | – | – | – | – | activity in Gi/o signaling (in words) (hD2L receptors): inactive; activity in β-arrestin recruitment (in words) (D2L receptors; Tango assay): inactive |
| Cc1nc2ccc(OCCCCN3CCC(c4cccc(Cl)c4Cl)CC3)cc2s1 [Compound 58, 6-(4-(4-(2,3-Dichlorophenyl)piperidin-1-yl)butoxy)-2-methylbenzo[d]thiazole] | – | 24 | 460 | 56 | – |
